Results on three molecules are retold here after patent publication US20140309296A1, “BUDIODARONE FORMULATIONS” (Armetheon, Inc., priority 2013, published 2014).

Structures can show the parent of a compound that is named as a salt.

The subject of data set [1] is sodium, potassium, and calcium ion channels. The note with it: in vivo; cited from earlier work.
Data set [2] in a line: Budiodarone concentration attainable in hyperconcentrated solutions (Examples 16-18). The data set is classed as physicochemical. As for the experimental part: The benzyl alcohol/budiodarone tartrate solution is viscous and therefore direct measurement of the budiodarone concentration is difficult. A better way to measure budiodarone concentration in the solution of benzyl alcohol and budiodarone oil or in a hyperconcentrated solution is by using an indirect method. In this example, the volume of the benzyl alcohol/budiodarone mixture was measured, which in turn allowed for the calculation of an accurate budiodarone concentration.
In each of five vials of accurately known volume, budiodarone tartrate (250 mg) and benzyl alcohol (91 μl) were mixed in order to make a 3/1 mixture (mol/mol). Then the solution was mixed thoroughly in order to make a clear solution. This was aided with the help of warming to 50° C. for 3 minutes in order to reduce the viscosity of the mixture. The weight of the vial containing the 3:1 mixture of benzyl alcohol/budiodarone was then recorded. Vial number 1 was filled with silicon oil of density d=0.964 and weighed again. The difference in weight provided the weight of the silicon oil added. This, divided by the density of the silicon oil provided the volume of silicon oil necessary to fill the vial. The difference with the known volume of the vial represents the volume of the benzyl alcohol/budiodarone mixture. To Vial numbers 2, 3, 4, and 5 was added 50, 100, 200, and 400 μl of water, respectively. The contents of the vials were then thoroughly mixed in order to get hyperconcentrated solutions of different volumes and different budiodarone concentrations. The volumes of these hyperconcentrations using silicon oil were measured as described above.
The same experiment as Example 16 was replicated, using mixtures of 5/1 ratio (250 mg of budiodarone tartrate and 152 μl of benzyl alcohol) and various volumes of water added. Using the same procedure as Example 16, a maximum calculated budiodarone concentration of 737 mg/ml and a maximum benzyl alcohol concentration of 45% (v/v) were found.
Similarly, the experiment in Example 16 was replicated, using a 1/1 mixture (250 mg of budiodarone tartrate and 30 μl of benzyl alcohol). A maximum calculated budiodarone concentration of 1,136 mg/ml and a maximum benzyl alcohol concentration of 13.6% (v/v) were found.

For data set [3] the following is noted: 30 ml of 0.9% benzyl alcohol in saline, estimated from animal studies; cited from earlier work.
Data set [4] can be described thus: Solubility of budiodarone tartrate in water (Example 2). It counts as physicochemical. Here is the method:
The aqueous solubility of budiodarone tartrate was measured in pure distilled water. Budiodarone tartrate (250 mg) was suspended in distilled water (10 ml) and the suspension was vortexed on a VWR Genie 2 vortexer at maximum speed for 3×10 sec duration. The suspension was then stirred for 96 hours at room temperature, protected from light. After 96 hours, the suspension was vortexed again and a 1 ml aliquot was centrifuged at 13,000 rpm for 10 minutes to precipitate all insoluble material. A 40 μl aliquot of the clear supernatant was diluted with 960 μl of methanol (25-fold dilution) and was analyzed by HPLC using Conditions 3.
The amount of budiodarone in solution is found to be 7.04 mg/ml. This figure is the solubility of budiodarone tartrate in water.

Consider `CCN(CC)CCOc1c(I)cc(C(=O)c2c(CC(=O)O)oc3ccccc23)cc1I` [ATI-2000], for which the “electrophysiological activity of the major metabolite” value in data set [1] is “electrophysiologically inactive”.
Turning to `OCc1ccccc1` [benzyl alcohol], the “maximum benzyl alcohol concentration” value in data set [2] (1/1 mixture) is listed as 13.6 % (v/v); in data set [2] (3:1 molar ratio of benzyl alcohol/budiodarone), 32.4 % (v/v); in data set [2] (5/1 ratio) it was 45 % (v/v). In addition, the “amount estimated to be safe by rapid intravenous infusion” value in data set [3] is given as “approximately 4.5 mg/kg”.
With `CC[C@H](C)OC(=O)Cc1oc2ccccc2c1C(=O)c1cc(I)c(OCCN(CC)CC)c(I)c1` [budiodarone tartrate, (1S)-1-methylpropyl 2-(3-{4-[2-(diethylamino)ethoxy]-3,5-diiodobenzoyl}benzofuran-2-yl)acetate, hydrogen (2R,3R)-2,3-dihydroxybutanedioate], the “degradation products in the clear supernatant” value in data set [4] (after 96 hours stirring in distilled water at room temperature, HPLC) is listed as “No significant amount of degradation products were detected”. Also, the solubility at 96 h in data set [4] (distilled water, water, thermodynamic from solid, water, room temperature, read-out: aqueous solubility of budiodarone tartrate) was 7040 µg/mL. The “aqueous solubility of budiodarone tartrate” value in data set [4] (water, room temperature) is recorded as “about 7 mg/ml”.
